These results are taken from patent US10351546B2, “Pyridin-3-yl acetic acid derivatives as inhibitors of human immunodeficiency virus replication” (priority 2015, dated 2019).

Bounds are passed on as bounds.

For one assay, the system named is NL-RLuc virus. In words: Inhibition of HIV replication (NL-RLuc luciferase reporter virus in MT-2 cells). The class given is cell-based. The settings on record: Human immunodeficiency virus 1, MT2, 120 h, read-out: Activity. The text has this:
Inhibition of HIV replication: A recombinant NL-RLuc proviral clone was constructed in which a section of the nef gene form NL4-3 was replaced with the Renilla Luciferase gene. This virus is fully infectious and can undergo multiple cycles of replication in cell culture. In addition, the luciferous reporter provides a simple and easy method for quantitating the extent of virus growth and consequently, the antiviral activity of test compounds. The plasmid pNLRLuc contains the proviral NL-Rluc DNA cloned into pUC18 at the PvuII site. The NL-RLuc virus was prepared by transfection of 293T cells with the plasmid pNLRLuc. Transfections were performed using the LipofectAMINE PLUS kit form Invitrogen (Carlsbad, Calif.) according to the manufacturer and the virus generated was titered in MT-2 cells. For susceptibility analyses, the titrated virus was used to infect MT-2 cells in the presence of compound, and after 5 days of incubation, cells were processed and quantitated for virus growth by the amount of expressed luciferase. Assay media was RPMI 1640 supplemented with 10% heat inactivated fetal bovine serum (FBS), 100 units/ml penicillin G/100 units/ml streptomycin, 10 mM HEPES buffer pH 7.55 and 2 mM L-glutamine. The results form at least 2 experiments were used to calculate the EC50 values. Luciferase was quantitated using the Dual Luciferase kit form Promega (Madison, Wis.). Susceptibility of viruses to compounds was determined by incubation in the presence of serial dilutions of the compound. The 50% effective concentration (EC50) was calculated by using the exponential form of the median effect equation where (Fa)=1/[1+(ED50/drug conc.)^m](Johnson V A, Byington R T. Infectivity Assay. In Techniques in HIV Research. ed. Aldovini A, Walker B D. 71-76. New York: Stockton Press. 1990). Activity equal to A refers to a compound having an EC50≤100 nM, while B and C denote compounds having an EC50 between 100 nM and 1 uM (B) or >1 uM (C).
For `Cc1cc(F)ccc1CN1CCc2cc(-c3c(CN4CCSCC4)nc(C)c([C@H](OC(C)(C)C)C(=O)O)c3N3CCC(C)(C)CC3)ccc2C1` [Example 122, (S)-2-(tert-Butoxy)-2-(4-(4,4-dimethylpiperidin-1-yl)-5-(2-(4-fluoro-2-methylbenzyl)-1,2,3,4-tetrahydroisoquinolin-6-yl)-2-methyl-6-(thiomorpholinomethyl)pyridin-3-yl)acetic acid], the EC50 was less than 0.1 µM.

Take `Cc1nc(CN2CC(C)OC(C)C2)c(-c2ccc(OCCc3ccc(F)cc3)cc2)c(N2CCC(C)(C)CC2)c1[C@H](OC(C)(C)C)C(=O)O` (stereo partly drawn) [Example 92, (2S)-2-(tert-Butoxy)-2-(6-((2,6-dimethylmorpholino)methyl)-4-(4,4-dimethylpiperidin-1-yl)-5-(4-(4-fluorophenethoxy)phenyl)-2-methylpyridin-3-yl)acetic acid]: the EC50 was less than 0.1 µM.

As to `CC(=O)NCc1nc(C)c([C@H](OC(C)(C)C)C(=O)O)c(N2CCC(C)(C)CC2)c1-c1ccc(OCCc2ccc(F)cc2)cc1` [Example 106, (S)-2-(6-(Acetamidomethyl)-4-(4,4-dimethylpiperidin-1-yl)-5-(4-(4-fluorophenethoxy)phenyl)-2-methylpyridin-3-yl)-2-(tert-butoxy)acetic acid], the EC50 is less than 0.1 µM.

Regarding `Cc1cc(F)ccc1CN1CCc2cc(-c3c(CN4CCC5(CCC5)CC4)nc(C)c([C@H](OC(C)(C)C)C(=O)O)c3N3CCC(C)(C)CC3)ccc2C1` [Example 134, (S)-2-(6-(7-Azaspiro[3.5]nonan-7-ylmethyl)-4-(4,4-dimethylpiperidin-1-yl)-5-(2-(4-fluoro-2-methylbenzyl)-1,2,3,4-tetrahydroisoquinolin-6-yl)-2-methylpyridin-3-yl)-2-(tert-butoxy)acetic acid], the EC50 is less than 0.1 µM.

On to `Cc1nnc(C(=O)NCc2nc(C)c([C@H](OC(C)(C)C)C(=O)O)c(N3CCC(C)(C)CC3)c2-c2ccc(OCCc3ccc(F)cc3)cc2)o1` [Example 104, (S)-2-(tert-Butoxy)-2-(4-(4,4-dimethylpiperidin-1-yl)-5-(4-(4-fluorophenethoxy)phenyl)-2-methyl-6-((5-methyl-1,3,4-oxadiazole-2-carboxamido)methyl)pyridin-3-yl)acetic acid], for which the EC50 was less than 0.1 µM.

`Cc1nc(CNCc2cocn2)c(-c2ccc(OCCc3ccc(F)cc3)cc2)c(N2CCC(C)(C)CC2)c1[C@H](OC(C)(C)C)C(=O)O` [Example 78, (S)-2-(tert-Butoxy)-2-(4-(4,4-dimethylpiperidin-1-yl)-5-(4-(4-fluorophenethoxy)phenyl)-2-methyl-6-(((oxazol-4-ylmethyl)amino)methyl)pyridin-3-yl)acetic acid]: the EC50 is less than 0.1 µM.

As to `Cc1nc(COCC2CCCC2)c(-c2ccc(OCCc3ccc(F)cc3)cc2)c(N2CCC(C)(C)CC2)c1[C@H](OC(C)(C)C)C(=O)O` [Example 13, (S)-2-(tert-Butoxy)-2-(6-((cyclopentylmethoxy)methyl)-4-(4,4-dimethylpiperidin-1-yl)-5-(4-(4-fluorophenethoxy)phenyl)-2-methylpyridin-3-yl)acetic acid], the EC50 is less than 0.1 µM.

Regarding `Cc1nc(CNc2ccccc2)c(-c2ccc(OCCc3ccc(F)cc3)cc2)c(N2CCC(C)(C)CC2)c1[C@H](OC(C)(C)C)C(=O)O` [Example 73, (S)-2-(tert-Butoxy)-2-(4-(4,4-dimethylpiperidin-1-yl)-5-(4-(4-fluorophenethoxy)phenyl)-2-methyl-6-((phenylamino)methyl)pyridin-3-yl)acetic acid], the EC50 is less than 0.1 µM.

Take `Cc1nnc(C(=O)N(C)Cc2nc(C)c([C@H](OC(C)(C)C)C(=O)O)c(N3CCC(C)(C)CC3)c2-c2ccc(OCCc3ccc(F)cc3)cc2)o1` [Example 103, (S)-2-(tert-butoxy)-2-(6-((N,5-dimethyl-1,3,4-oxadiazole-2-carboxamido)methyl)-4-(4,4-dimethylpiperidin-1-yl)-5-(4-(4-fluorophenethoxy)phenyl)-2-methylpyridin-3-yl)acetic acid]: the EC50 is less than 0.1 µM.

Regarding `Cc1nc(COCc2cccc(Cl)c2)c(-c2ccc(OCCc3ccc(F)cc3)cc2)c(N2CCC(C)(C)CC2)c1[C@H](OC(C)(C)C)C(=O)O` [Example 16, (S)-2-(tert-Butoxy)-2-(6-(((3-chlorobenzyl)oxy)methyl)-4-(4,4-dimethylpiperidin-1-yl)-5-(4-(4-fluorophenethoxy)phenyl)-2-methylpyridin-3-yl)acetic acid], the EC50 is less than 0.1 µM.

With `Cc1cc(F)ccc1CN1CCc2cc(-c3c(N)nc(C)c([C@H](OC(C)(C)C)C(=O)O)c3N3CCC(C)(C)CC3)ccc2C1` [Example 147, (S)-2-(6-Amino-4-(4,4-dimethylpiperidin-1-yl)-5-(2-(4-fluoro-2-methylbenzyl)-1,2,3,4-tetrahydroisoquinolin-6-yl)-2-methylpyridin-3-yl)-2-(tert-butoxy)acetic acid], the EC50 is less than 0.1 µM.

As to `CNCc1nc(C)c([C@H](OC(C)(C)C)C(=O)O)c(N2CCC(C)(C)CC2)c1-c1ccc(OCCc2ccc(F)cc2)cc1` [Example 64, (S)-2-(tert-Butoxy)-2-(4-(4,4-dimethylpiperidin-1-yl)-5-(4-(4-fluorophenethoxy)phenyl)-2-methyl-6-((methylamino)methyl)pyridin-3-yl)acetic acid], the EC50 is less than 0.1 µM.

`Cc1cc(F)ccc1CN1CCc2cc(-c3c(COCC4COC4)nc(C)c([C@H](OC(C)(C)C)C(=O)O)c3N3CCC(C)(C)CC3)ccc2C1` [Example 154, (S)-2-(tert-Butoxy)-2-(4-(4,4-dimethylpiperidin-1-yl)-5-(2-(4-fluoro-2-methylbenzyl)-1,2,3,4-tetrahydroisoquinolin-6-yl)-2-methyl-6-((oxetan-3-ylmethoxy)methyl)pyridin-3-yl)acetic acid]: the EC50 is less than 0.1 µM.

With `CC(=O)Nc1nc(C)c([C@H](OC(C)(C)C)C(=O)O)c(N2CCC(C)(C)CC2)c1-c1ccc(OCCc2ccc(F)cc2)cc1` [Example 47, (S)-2-(6-Acetamido-4-(4,4-dimethylpiperidin-1-yl)-5-(4-(4-fluorophenethoxy)phenyl)-2-methylpyridin-3-yl)-2-(tert-butoxy)acetic acid], the EC50 was less than 0.1 µM.

Regarding `Cc1cc(F)ccc1CN1CCc2cc(-c3c(CN4CCCC(F)(F)C4)nc(C)c([C@H](OC(C)(C)C)C(=O)O)c3N3CCC(C)(C)CC3)ccc2C1` [Example 129, (S)-2-(tert-Butoxy)-2-(6-((3,3-difluoropiperidin-1-yl)methyl)-4-(4,4-dimethylpiperidin-1-yl)-5-(2-(4-fluoro-2-methylbenzyl)-1,2,3,4-tetrahydroisoquinolin-6-yl)-2-methylpyridin-3-yl)acetic acid], the EC50 is less than 0.1 µM.

With `Cc1nc(COCC2COC2)c(-c2ccc(OCCc3ccc(F)cc3)cc2)c(N2CCC(C)(C)CC2)c1[C@H](OC(C)(C)C)C(=O)O` [Example 7, (S)-2-(tert-Butoxy)-2-(4-(4,4-dimethylpiperidin-1-yl)-5-(4-(4-fluorophenethoxy)phenyl)-2-methyl-6-((oxetan-3-ylmethoxy)methyl)pyridin-3-yl)acetic acid], the EC50 is less than 0.1 µM.

With `Cc1nc(CN2C3CC2CN(Cc2ccccc2)C3)c(-c2ccc(OCCc3ccc(F)cc3)cc2)c(N2CCC(C)(C)CC2)c1[C@H](OC(C)(C)C)C(=O)O` [Example 98, (2S)-2-(6-((3-Benzyl-3,6-diazabicyclo[3.1.1]heptan-6-yl)methyl)-4-(4,4-dimethylpiperidin-1-yl)-5-(4-(4-fluorophenethoxy)phenyl)-2-methylpyridin-3-yl)-2-(tert-butoxy)acetic acid], the EC50 is less than 0.1 µM.

For the molecule `CNC(=O)c1nc(C)c([C@H](OC(C)(C)C)C(=O)O)c(N2CCC(C)(C)CC2)c1-c1ccc(OCCc2ccc(F)cc2)cc1` [Example 40, (S)-2-(tert-Butoxy)-2-(4-(4,4-dimethylpiperidin-1-yl)-5-(4-(4-fluorophenethoxy)phenyl)-2-methyl-6-(methylcarbamoyl)pyridin-3-yl)acetic acid], the EC50 was less than 0.1 µM.

As to `Cc1nc(CO)c([C@H](OC(C)(C)C)C(=O)O)c(N2CCC(C)(C)CC2)c1-c1ccc(OCCc2ccc(F)cc2)cc1` [Example 1, (S)-2-(tert-Butoxy)-2-(4-(4,4-dimethylpiperidin-1-yl)-5-(4-(4-fluorophenethoxy)phenyl)-2-(hydroxymethyl)-6-methylpyridin-3-yl)acetic acid], the EC50 is less than 0.1 µM.

Take `Cc1cc(F)ccc1CN1CCc2cc(-c3c(CN4CC[C@@H](F)C4)nc(C)c([C@H](OC(C)(C)C)C(=O)O)c3N3CCC(C)(C)CC3)ccc2C1` [Example 133, (S)-2-(tert-Butoxy)-2-(4-(4,4-dimethylpiperidin-1-yl)-5-(2-(4-fluoro-2-methylbenzyl)-1,2,3,4-tetrahydroisoquinolin-6-yl)-6-(((R)-3-fluoropyrrolidin-1-yl)methyl)-2-methylpyridin-3-yl)acetic acid]: the EC50 is less than 0.1 µM.

Still in this assay, the particulars now being: Human immunodeficiency virus 1, MT2, 120 h, read-out: EC50 μM.
For `Cc1cc(F)ccc1CN1CCc2cc(-c3c(CN4CCC5(CCC5)CC4)nc(C)c([C@H](OC(C)(C)C)C(=O)O)c3N3CCC(C)(C)CC3)ccc2C1` [Example 134, (S)-2-(6-(7-Azaspiro[3.5]nonan-7-ylmethyl)-4-(4,4-dimethylpiperidin-1-yl)-5-(2-(4-fluoro-2-methylbenzyl)-1,2,3,4-tetrahydroisoquinolin-6-yl)-2-methylpyridin-3-yl)-2-(tert-butoxy)acetic acid], the EC50 is 0.001 µM.

For the molecule `Cc1nc(CO)c([C@H](OC(C)(C)C)C(=O)O)c(N2CCC(C)(C)CC2)c1-c1ccc(OCCc2ccc(F)cc2)cc1` [Example 1, (S)-2-(tert-Butoxy)-2-(4-(4,4-dimethylpiperidin-1-yl)-5-(4-(4-fluorophenethoxy)phenyl)-2-(hydroxymethyl)-6-methylpyridin-3-yl)acetic acid], the EC50 came out at 0.003 µM.
